In the assay the target is 5-HT2A receptors (UniProt P14842). The assay can be described thus: in-vitro affinity to 5-HT2A receptors, [3H]ketanserine displacement (Example A1). In kind it is binding. From the text:
The 5-HT2A receptors are exposed both to [^3H]ketanserine (a substance known for its affinity to the receptor) and also to the test compound. The decrease in the affinity of [^3H]ketanserine to the receptor is an indication of the affinity of the test substance to the 5-HT2A receptor.
The compound `Fc1ccccc1-c1c(CN2CCN(Cc3ccccc3)CC2)cnn1-c1ccc(-c2ccccc2)cc1` [Example 679, 1-Benzyl-4-[1-biphenyl-4-yl-5-(2-fluorophenyl)-1H-pyrazol-4-ylmethyl]piperazine] returned an IC50 of 170 nM. Take `NC1CCN(Cc2cnn(-c3ccc(-c4ccc5c(c4)OCCO5)cc3)c2-c2ccco2)CC1` [Example 652, 1-{1-[4-(2,3-Dihydrobenzo-1,4-dioxin-6-yl)phenyl]-5-furan-2-yl-1H-pyrazol-4-ylmethyl}piperidin-4-ylamine]: the 50% inhibitory concentration (IC50) was 55 nM. In turn, `NC1CCN(Cc2cnn(-c3ccc(-c4cccc(F)c4)cc3)c2-c2ccco2)CC1` [Example 673, 1-[1-(3′-Fluorobiphenyl-4-yl)-5-furan-2-yl-1H-pyrazol-4-ylmethyl]piperidin-4-ylamine] returned an IC50 of 120 nM. Under `CC(C)(C)OC(=O)N1CCN(Cc2cnn(-c3ccc(-c4cccc(F)c4)cc3)c2-c2ccco2)CC1` [Example 638, tert-Butyl 4-[1-(3′-Fluorobiphenyl-4-yl)-5-furan-2-yl-1H-pyrazol-4-ylmethyl]piperazine-1-carboxylate] stands 42 nM; under `CN(CCC#N)Cc1cnn(-c2ccc(-c3ccc(F)cc3)cc2)c1-c1ccco1` [Example 669, 3-{[1-(4′-Fluorobiphenyl-4-yl)-5-furan-2-yl-1H-pyrazol-4-ylmethyl]methylamino}propionitrile], 95 nM; under `CCCN1CCN(Cc2cnn(-c3ccc(-c4ccc(F)cc4)cc3)c2-c2cccc(OC)c2)CC1` [Example 684, 1-[1-(4′-Fluorobiphenyl-4-yl)-5-(3-methoxyphenyl)-1H-pyrazol-4-ylmethyl]-4-propylpiperazine], 190 nM.

As for `OC1CCN(Cc2cnn(-c3ccc(-c4ccc(F)cc4)cc3)c2-c2ccoc2)C1` (stereo not drawn) [Example 670, 1-[1-(4′-Fluorobiphenyl-4-yl)-5-furan-3-yl-1H-pyrazol-4-ylmethyl]pyrrolidin-3-ol], the IC50 worked out at 96 nM. In turn, `OCC1CCN(Cc2cnn(-c3ccc(-c4ccc(F)cc4)cc3)c2-c2ccco2)C1` (stereo not drawn) [Example 567, {1-[1-(4′-Fluorobiphenyl-4-yl)-5-furan-2-yl-1H-pyrazol-4-ylmethyl]pyrrolidin-3-yl}methanol] gave a half-inhibitory concentration (IC50) of 11 nM. This IC50 is about 8.7-fold lower than that of the compound before.

In turn, `CCN(CC)Cc1cnn(-c2ccc(-c3ccc(F)cc3)cc2)c1-c1ccoc1` [Example 662, Diethyl-[1-(4′-fluorobiphenyl-4-yl)-5-furan-3-yl-1H-pyrazol-4-ylmethyl]amine] returned an IC50 of 78 nM. Compound `CC(C)CCNCc1cnn(-c2ccc(-c3ccc(F)cc3)cc2)c1-c1ccco1` [Example 628, [1-(4′-Fluorobiphenyl-4-yl)-5-furan-2-yl-1H-pyrazol-4-ylmethyl]-(3-methylbutyl)amine] had an IC50 of 36 nM. As to `COc1cccc(-c2c(CN3CCN(C)CC3)cnn2-c2ccc(-c3ccc(F)cc3)cc2)c1` [Example 627, 1-[1-(4′-Fluorobiphenyl-4-yl)-5-(3-methoxyphenyl)-1H-pyrazol-4-ylmethyl]-4-methylpiperazine], the IC50 was determined as 36 nM. That is a double-digit nanomolar value.

In turn, `O=C(c1ccccc1)C1CCCN(Cc2cnn(-c3ccc(-c4ccc(F)cc4)cc3)c2-c2ccco2)C1` (stereo not drawn) [Example 593, 1-{1-[1-(4′-Fluorobiphenyl-4-yl)-5-furan-2-yl-1H-pyrazol-4-ylmethyl]piperidin-3-yl}-1-phenylmethanone] registered an IC50 of 20 nM. This IC50 lies about 1.8-fold lower than the previous one. In the case of `Fc1ccc(-c2ccc(-n3ncc(CN4CCC(N5CCCC5)CC4)c3-c3ccoc3)cc2)cc1` [Example 692, 1-[1-(4′-Fluorobiphenyl-4-yl)-5-furan-3-yl-1H-pyrazol-4-ylmethyl]-4-pyrrolidin-1-ylpiperidine], the IC50 was 260 nM. `CC(=O)N(CCN1CCCCC1)Cc1cnn(-c2ccc(-c3ccc(F)cc3)cc2)c1-c1ccco1` [Example 699, N-[1-(4′-Fluorobiphenyl-4-yl)-5-furan-2-yl-1H-pyrazol-4-ylmethyl]-N-(2-piperidin-1-ylethyl)acetamide]: the IC50 is 430 nM. `CCCCNCc1cnn(-c2ccc(-c3ccc(F)cc3)cc2)c1-c1ccco1` [Example 677, Butyl-[1-(4′-fluorobiphenyl-4-yl)-5-furan-2-yl-1H-pyrazol-4-ylmethyl]amine] returned an IC50 of 130 nM.

Consider `Fc1ccc(-c2ccc(-n3ncc(CNC4CN5CCC4CC5)c3-c3ccco3)cc2)cc1` (stereo not drawn) [Example 681, (1-Azabicyclo[2.2.2]oct-3-yl)-[1-(4′-fluorobiphenyl-4-yl)-5-furan-2-yl-1H-pyrazol-4-ylmethyl]amine], for which the IC50 turned out to be 180 nM. “{[1-(4′-Fluorobiphenyl-4-yl)-5-furan-2-yl-1H-pyrazol-4-ylmethyl]methylamino}phenylpropan-1-ol [Example 587]”: the IC50 came to 19 nM. `CCC(CC)CNCc1cnn(-c2ccc(-c3ccc(OC)cc3)cc2)c1-c1ccco1` [Example 637] had an IC50 of 42 nM. For `O=C1CN(Cc2cnn(-c3ccc(-c4ccc5c(c4)OCO5)cc3)c2-c2ccco2)CCN1` [Example 612, 4-[1-(4-Benzo-1,3-dioxol-5-ylphenyl)-5-furan-2-yl-1H-pyrazol-4-ylmethyl]piperazin-2-one] the value was 31 nM. The compound `CCN1CCN(Cc2cnn(-c3ccc(-c4ccc(F)cc4)cc3)c2-c2cccc(Cl)c2)CC1` [Example 650, 1-[5-(3-Chlorophenyl)-1-(4′-fluorobiphenyl-4-yl)-1H-pyrazol-4-ylmethyl]-4-ethylpiperazine] came in with an IC50 of 54 nM. This IC50 is about 1.7-fold higher than that of the compound before.

The compound `CN(C)CCN1CCN(Cc2cnn(-c3ccc(-c4ccc(F)cc4)cc3)c2-c2cccc(Cl)c2)CC1` [Example 701, (2-{4-[5-(3-Chlorophenyl)-1-(4′-fluorobiphenyl-4-yl)-1H-pyrazol-4-ylmethyl]piperazin-1-yl}ethyl)dimethylamine] returned a half-maximal inhibitory concentration (IC50) of 470 nM. This IC50 is about 8.7-fold higher than that of the compound before.

With `CN1CCN(c2cnn(-c3ccc(-c4ccc5c(c4)OCO5)cc3)c2-c2ccccc2)CC1` [Example 565, 1-[1-(4-Benzo-1,3-dioxol-5-ylphenyl)-5-phenyl-1H-pyrazol-4-yl]-4-methylpiperazine], the IC50 turned out to be 10 nM.

`Fc1ccc(-c2ccc(-n3ncc(CN4CCN(C5CCCC5)CC4)c3-c3cccc(Cl)c3)cc2)cc1` [Example 686, 1-[5-(3-Chlorophenyl)-1-(4′-fluorobiphenyl-4-yl)-1H-pyrazol-4-ylmethyl]-4-cyclopentylpiperazine] displayed a concentration for half-maximal inhibition (IC50) of 200 nM. With `CC1CCCN1Cc1cnn(-c2ccc(-c3cccc(F)c3)cc2)c1-c1ccco1` (stereo not drawn) [Example 620, 1-(3′-Fluorobiphenyl-4-yl)-5-furan-2-yl-4-(2-methylpyrrolidin-1-ylmethyl)-1H-pyrazole], the IC50 is 34 nM. In the case of `O=C1NCCCCC1NCc1cnn(-c2ccc(-c3ccc(F)cc3)cc2)c1-c1ccco1` (stereo not drawn) [Example 694, 3-{[1-(4′-Fluorobiphenyl-4-yl)-5-furan-2-yl-1H-pyrazol-4-ylmethyl]amino}azepan-2-one], the IC50 amounted to 290 nM. With `COc1ccc(-c2ccc(-n3ncc(CN4CCN(C)CC4)c3-c3ccccc3F)cc2)cn1` [Example 648, 1-{5-(2-Fluorophenyl)-1-[4-(6-methoxypyridin-3-yl)phenyl]-1H-pyrazol-4-ylmethyl}-4-methylpiperazine], the concentration for half-maximal inhibition (IC50) was 53 nM. For `CN1CCN(c2cnn(-c3ccc(-c4cccc(F)c4)cc3)c2-c2ccccc2)CC1` [Example 578, 1-[1-(3′-Fluorobiphenyl-4-yl)-5-phenyl-1H-pyrazol-4-yl]-4-methylpiperazine], the IC50 was determined as 16 nM.

As usually defined, the IC50 is the concentration that gives 50% inhibition. High values mean lower potency, low ones higher potency.

Values taken from patent US7842695B2, “Substituted pyrazole compounds” (Merck Patent GmbH, priority 2003, dated 2010).
